The NIST ThermoML archive (doi:10.1016/j.jct.2016.06.012)
Numbers after ± are expanded uncertainties.

Assay: xn = mol fraction of the nth substance listed
Details: 100 kPa, Liquid; for viscosity: Capillary tube (Ostwald / Ubbelohde) method; for mass density: Vibrating tube method

CCCCn1cc[n+](C)c1C.O=S(=O)([N-]S(=O)(=O)C(F)(F)F)C(F)(F)F + O=C1CCCO1
Details	mass density [kg/m3]	viscosity [mPa·s]
293.15 K, x1 = 0.0532	1183 ± 9.6	2.62 ± 0.06
293.15 K, x1 = 0.1004	1219.51 ± 9.8	3.65 ± 0.09
293.15 K, x1 = 0.1504	1250.59 ± 10	4.95 ± 0.11
293.15 K, x1 = 0.1999	1275.61 ± 10	6.54 ± 0.15
293.15 K, x1 = 0.2988	1314.04 ± 11	10.79 ± 0.24
293.15 K, x1 = 0.4006	1342.77 ± 11	17.78 ± 0.39
293.15 K, x1 = 0.5005	1364.2 ± 11	26.66 ± 0.59
293.15 K, x1 = 0.5999	1381 ± 11	40.38 ± 0.88
293.15 K, x1 = 0.7	1394.71 ± 11	56.57 ± 1.2
293.15 K, x1 = 0.8013	1406.18 ± 11	79.17 ± 1.8
293.15 K, x1 = 0.8986	1415.43 ± 11	102.22 ± 2.4
293.15 K, x1 = 1	1423.72 ± 11	133.59 ± 3.4
298.15 K, x1 = 0.0532	1178.1 ± 9.5	2.43 ± 0.06
298.15 K, x1 = 0.1004	1214.61 ± 9.8	3.29 ± 0.08
298.15 K, x1 = 0.1504	1245.77 ± 10	4.48 ± 0.1
298.15 K, x1 = 0.1999	1270.81 ± 10	5.77 ± 0.13
298.15 K, x1 = 0.2988	1309.26 ± 10	9.32 ± 0.21
298.15 K, x1 = 0.4006	1338.05 ± 11	14.92 ± 0.33
298.15 K, x1 = 0.5005	1359.5 ± 11	22.02 ± 0.48
298.15 K, x1 = 0.5999	1376.34 ± 11	32.56 ± 0.7
298.15 K, x1 = 0.7	1390.08 ± 11	44.79 ± 0.96
298.15 K, x1 = 0.8013	1401.56 ± 11	60.93 ± 1.3
298.15 K, x1 = 0.8986	1410.81 ± 11	78.62 ± 1.8
298.15 K, x1 = 1	1419.13 ± 11	101.34 ± 2.4
303.15 K, x1 = 0.0532	1173.22 ± 9.5	2.23 ± 0.05
303.15 K, x1 = 0.1004	1209.75 ± 9.7	2.98 ± 0.07
303.15 K, x1 = 0.1504	1240.94 ± 10	4.01 ± 0.09
303.15 K, x1 = 0.1999	1266 ± 10	5.11 ± 0.12
303.15 K, x1 = 0.2988	1304.49 ± 10	8.06 ± 0.18
303.15 K, x1 = 0.4006	1333.32 ± 11	12.72 ± 0.28
303.15 K, x1 = 0.5005	1354.8 ± 11	18.27 ± 0.4
303.15 K, x1 = 0.5999	1371.67 ± 11	26.34 ± 0.57
303.15 K, x1 = 0.7	1385.42 ± 11	35.8 ± 0.77
303.15 K, x1 = 0.8013	1396.93 ± 11	48.32 ± 1
303.15 K, x1 = 0.8986	1406.19 ± 11	61.12 ± 1.3
303.15 K, x1 = 1	1414.52 ± 11	77.86 ± 1.7
308.15 K, x1 = 0.0532	1168.35 ± 9.4	2.05 ± 0.05
308.15 K, x1 = 0.1004	1204.91 ± 9.7	2.72 ± 0.06
308.15 K, x1 = 0.1504	1236.11 ± 9.9	3.65 ± 0.08
308.15 K, x1 = 0.1999	1261.18 ± 10	4.57 ± 0.1
308.15 K, x1 = 0.2988	1299.72 ± 10	7.1 ± 0.16
308.15 K, x1 = 0.4006	1328.58 ± 11	10.83 ± 0.24
308.15 K, x1 = 0.5005	1350.1 ± 11	15.54 ± 0.34
308.15 K, x1 = 0.5999	1366.99 ± 11	21.9 ± 0.47
308.15 K, x1 = 0.7	1380.78 ± 11	29.22 ± 0.63
308.15 K, x1 = 0.8013	1392.3 ± 11	39.19 ± 0.84
308.15 K, x1 = 0.8986	1401.58 ± 11	48.88 ± 1
308.15 K, x1 = 1	1409.91 ± 11	61.73 ± 1.3
313.15 K, x1 = 0.0532	1163.43 ± 9.4	1.9 ± 0.04
313.15 K, x1 = 0.1004	1200.07 ± 9.7	2.49 ± 0.06
313.15 K, x1 = 0.1504	1231.24 ± 9.9	3.28 ± 0.07
313.15 K, x1 = 0.1999	1256.38 ± 10	4.11 ± 0.09
313.15 K, x1 = 0.2988	1294.96 ± 10	6.29 ± 0.14
313.15 K, x1 = 0.4006	1323.85 ± 11	9.4 ± 0.2
313.15 K, x1 = 0.5005	1345.39 ± 11	13.32 ± 0.29
313.15 K, x1 = 0.5999	1362.33 ± 11	18.32 ± 0.39
313.15 K, x1 = 0.7	1376.14 ± 11	24.44 ± 0.52
313.15 K, x1 = 0.8013	1387.67 ± 11	32.14 ± 0.68
313.15 K, x1 = 0.8986	1396.98 ± 11	39.87 ± 0.85
313.15 K, x1 = 1	1405.31 ± 11	49.77 ± 1
318.15 K, x1 = 0.0532	1158.58 ± 9.4	1.74 ± 0.04
318.15 K, x1 = 0.1004	1195.18 ± 9.6	2.3 ± 0.05
318.15 K, x1 = 0.1504	1226.41 ± 9.9	3.06 ± 0.07
318.15 K, x1 = 0.1999	1251.54 ± 10	3.74 ± 0.08
318.15 K, x1 = 0.2988	1290.17 ± 10	5.63 ± 0.12
318.15 K, x1 = 0.4006	1319.11 ± 11	8.18 ± 0.18
318.15 K, x1 = 0.5005	1340.7 ± 11	11.52 ± 0.25
318.15 K, x1 = 0.5999	1357.64 ± 11	15.42 ± 0.33
318.15 K, x1 = 0.7	1371.48 ± 11	20.51 ± 0.44
318.15 K, x1 = 0.8013	1383.04 ± 11	26.78 ± 0.57
318.15 K, x1 = 0.8986	1392.36 ± 11	32.9 ± 0.7
318.15 K, x1 = 1	1400.7 ± 11	40.7 ± 0.85
323.15 K, x1 = 0.0532	1153.71 ± 9.3	1.63 ± 0.04
323.15 K, x1 = 0.1004	1190.32 ± 9.6	2.12 ± 0.05
323.15 K, x1 = 0.1504	1221.58 ± 9.8	2.72 ± 0.06
323.15 K, x1 = 0.1999	1246.73 ± 10	3.39 ± 0.08
323.15 K, x1 = 0.2988	1285.42 ± 10	5.03 ± 0.11
323.15 K, x1 = 0.4006	1314.4 ± 11	7.22 ± 0.16
323.15 K, x1 = 0.5005	1336.03 ± 11	10.06 ± 0.22
323.15 K, x1 = 0.5999	1352.99 ± 11	13.17 ± 0.28
323.15 K, x1 = 0.7	1366.86 ± 11	17.44 ± 0.37
323.15 K, x1 = 0.8013	1378.44 ± 11	22.39 ± 0.48
323.15 K, x1 = 0.8986	1387.78 ± 11	27.46 ± 0.58
323.15 K, x1 = 1	1396.13 ± 11	33.69 ± 0.71
